The results in this text go back to patent publication US10206394B2, “Herbicidal compounds” (Syngenta Participations AG, priority 2014, dated 2019).

The structures appear in SMILES notation. Where two headings read alike, the source gives them in different places.

Holding throughout (format): in vivo
The subject of series [1] is Alopecurus myosuroides (ALOMY). In words: Glasshouse assay for herbicidal activity (pre- and post-emergence), percentage phytotoxicity. The conditions noted are these: Alopecurus myosuroides, Rate 250 g/ha, 100%=total damage, 0%=no damage. The method, boiled down:
(§1)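 Visually rated damage, 0–100%. PRE spray 1 d after sowing, scored 20 DAA; POST spray ~12 d, scored 15 DAA. Glasshouse at 65% humidity, 16 h day.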

In series [2] the test system is Avena fatua (AVEFA). The description is as above. The note with it: Avena fatua, Rate 250 g/ha, 100%=total damage, 0%=no damage. Summed up:
as §1

In series [3] the test system is Echinochloa crus-galli (ECHCG). The series is described as above. The conditions noted are these: Echinochloa crus-galli, Rate 250 g/ha, 100%=total damage, 0%=no damage. Summed up: as §1
Series [4] concerns Lolium perenne (LOLPE). Described as above. The conditions noted are these: Lolium perenne, Rate 250 g/ha, 100%=total damage, 0%=no damage. The method, boiled down: as §1
For series [5], the system named is Winter Wheat variety 'Hereward'. In words: Glasshouse assay for crop safety, post-emergence, +/- safener cloquintocet-mexyl (CQC), percentage phytotoxicity. The note with it: 250 g/ha, evaluated after 13 days, 100=total damage, 0=no damage; for Post-emergence Crop Selectivity, percentage phytotoxicity, Wheat +CQC: with safener cloquintocet-mexyl (CQC) seed treatment 0.5 g/kg seed; for Post-emergence Crop Selectivity, percentage phytotoxicity, Wheat − CQC: without safener cloquintocet-mexyl (CQC). The text has this: Test—Glasshouse Assay for Crop Safety.
Seeds of the Winter Wheat variety ‘Hereward’ were seed treated with a wettable powder formulation of the cereal herbicide safener, cloquintocet mexyl, at a rate of 0.5 grams per kilogram of dry seed prior to the initiation of glasshouse testing. Three seeds were sown per 1.5 inch plastic pot into a sandy loam soil at a depth of 1 cm, 8 days prior to application of the test compounds and was watered and grown under controlled conditions in a glasshouse (at 24/16° C., day/night; 14 hours light; 65% humidity). The plants were sprayed Post-emergence with an aqueous spray solution derived from the formulation of the technical active ingredient in acetone/water (50:50) solution containing 0.5% Tween 20 (polyoxyethelyene sorbitan monolaurate, CAS RN 9005-64-5).
The test plants were then grown in a glasshouse under controlled conditions (at 24/16° C., day/night; 14 hours light; 65% humidity) and watered twice daily. After 13 days for pre and post-emergence, the test was evaluated (100=total damage to plant; 0=no damage to plant).

Where [6] appears, read: post-emergence, 360 h, post-emergence, assessed visually 15 DAA, read-out: Post-emergence herbicidal activity (percentage phytotoxicity) ALOMY POST.
Setting [7] is: pre-emergence, 480 h, pre-emergence, assessed visually 20 DAA, read-out: Pre-emergence herbicidal activity (percentage phytotoxicity) ALOMY PRE.
Where [8] appears, read: post-emergence, 360 h, post-emergence, assessed visually 15 DAA, read-out: Post-emergence herbicidal activity (percentage phytotoxicity) AVEFA POST.
The mark [9] stands for this setting: pre-emergence, 480 h, pre-emergence, assessed visually 20 DAA, read-out: Pre-emergence herbicidal activity (percentage phytotoxicity) AVEFA PRE.
The mark [10] stands for this setting: post-emergence, 360 h, post-emergence, assessed visually 15 DAA, read-out: Post-emergence herbicidal activity (percentage phytotoxicity) ECHCG POST.
[11] abbreviates: pre-emergence, 480 h, pre-emergence, assessed visually 20 DAA, read-out: Pre-emergence herbicidal activity (percentage phytotoxicity) ECHCG PRE.
[12] abbreviates: post-emergence, 360 h, post-emergence, assessed visually 15 DAA, read-out: Post-emergence herbicidal activity (percentage phytotoxicity) LOLPE POST.
The mark [13] stands for this setting: pre-emergence, 480 h, pre-emergence, assessed visually 20 DAA, read-out: Pre-emergence herbicidal activity (percentage phytotoxicity) LOLPE PRE.

As to `CCC(C)(C)NC(=O)CC1CC(=O)C(c2c(C)cc(C)cc2C)C1=O` (centres unmarked) [Compound A27], the pest or weed control at 250 g/ha in series [1] (setting [6]) came out at 80%; in series [1] (setting [7]), 70%; in series [2] (setting [8]), 80%; in series [2] (setting [9]) it was 70%; in series [3] (setting [10]), 80%; in series [3] (setting [11]), 80%. In addition, the pest or weed control at 250 g/ha in series [4] (setting [12]) and in series [4] (setting [13]) was 80% in each case. Further, the “Post-emergence Crop Selectivity, percentage phytotoxicity, Wheat +CQC” value in series [5] was determined as 20%. For the same molecule, the “Post-emergence Crop Selectivity, percentage phytotoxicity, Wheat − CQC” value in series [5] came out at 30%.
Take `CC#Cc1cc(C)c(C2C(=O)CC(CC(=O)NCC(=O)C(C)(C)C)C2=O)c(C)c1` (centres unmarked) [Compound A59]: the pest or weed control at 250 g/ha in series [1] (setting [6]) turned out to be 90%; in series [1] (setting [7]), 100%; in series [2] (setting [8]), 90%; in series [2] (setting [9]), 70%; in series [3] (setting [10]) it was 90%; in series [3] (setting [11]) it was 90%. Also, the pest or weed control at 250 g/ha in series [4] (setting [12]) and in series [4] (setting [13]) was 70% in each case. The “Post-emergence Crop Selectivity, percentage phytotoxicity, Wheat +CQC” value in series [5] is 50%. The “Post-emergence Crop Selectivity, percentage phytotoxicity, Wheat − CQC” value in series [5] is 80%.
Regarding `C#Cc1cc(C)c(C2C(=O)CC(CC(=O)NC(C)(C)C)C2=O)c(C)c1` (centres unmarked) [Compound A43], the pest or weed control at 250 g/ha in series [1] (setting [6]) was 100%; in series [1] (setting [7]), 100%; in series [2] (setting [8]), 90%; in series [2] (setting [9]), 100%; in series [3] (setting [10]) it was 90%; in series [3] (setting [11]) it was 100%. In addition, the pest or weed control at 250 g/ha in series [4] (setting [12]) is 90%; in series [4] (setting [13]), 100%. Moreover, the “Post-emergence Crop Selectivity, percentage phytotoxicity, Wheat +CQC” value in series [5] was determined as 50%. Moreover, the “Post-emergence Crop Selectivity, percentage phytotoxicity, Wheat − CQC” value in series [5] came out at 90%.
In the case of `Cc1cc(-n2cc(Cl)cn2)cc(C)c1C1C(=O)CC(CC(=O)NC(C)(C)C)C1=O` (centres unmarked) [Compound A67, N-tert-butyl-2-[3-[4-(4-chloropyrazol-1-yl)-2,6-dimethyl-phenyl]-2,4-dioxo-cyclopentyl]acetamide], the pest or weed control at 250 g/ha was 80% in series [1] (setting [6]); 100% in series [1] (setting [7]); 80% in series [2] (setting [8]); 90% in series [2] (setting [9]); 100% in series [3] (setting [10]); 90% in series [3] (setting [11]). Moreover, the pest or weed control at 250 g/ha in series [4] (setting [12]) turned out to be 70%; in series [4] (setting [13]), 90%. In series [5], the “Post-emergence Crop Selectivity, percentage phytotoxicity, Wheat +CQC” value was determined as 0%. Also, the “Post-emergence Crop Selectivity, percentage phytotoxicity, Wheat − CQC” value in series [5] stood at 70%.
Regarding `Cc1cc(-c2ncc(F)cn2)cc(C)c1C1C(=O)CC(CC(=O)NCc2cccc(C(F)(F)F)c2)C1=O` (centres unmarked) [Compound A145], the pest or weed control at 250 g/ha in series [1] (setting [6]), in series [1] (setting [7]), in series [2] (setting [8]), in series [2] (setting [9]), in series [3] (setting [10]) and in series [3] (setting [11]) was 100% throughout. The pest or weed control at 250 g/ha in series [4] (setting [12]) was 90%; in series [4] (setting [13]), 100%. In addition, the “Post-emergence Crop Selectivity, percentage phytotoxicity, Wheat +CQC” value in series [5] is recorded as 30%. The “Post-emergence Crop Selectivity, percentage phytotoxicity, Wheat − CQC” value in series [5] worked out at 60%.
For `Cc1cc(-n2cc(Cl)cn2)cc(C)c1C1C(=O)CC(CC(=O)NC2(c3ccccn3)CC2)C1=O` (centres unmarked) [Compound A73], the pest or weed control at 250 g/ha in series [1] (setting [6]) was 70%; in series [1] (setting [7]), 70%; in series [2] (setting [8]), 80%; in series [2] (setting [9]) it was 10%; in series [3] (setting [10]), 90%; in series [3] (setting [11]) it was 90%. Besides, the pest or weed control at 250 g/ha in series [4] (setting [12]) was 40%; in series [4] (setting [13]), 30%. The “Post-emergence Crop Selectivity, percentage phytotoxicity, Wheat +CQC” value in series [5] came out at 20%. The “Post-emergence Crop Selectivity, percentage phytotoxicity, Wheat − CQC” value in series [5] was 80%.
Consider `Cc1cc(C)c(C2C(=O)CC(CC(=O)NCc3ccccc3)C2=O)c(C)c1` (centres unmarked) [Compound A4], for which the pest or weed control at 250 g/ha in series [1] (setting [6]) came to 50%; in series [1] (setting [7]), 50%; in series [2] (setting [8]), 80%; in series [2] (setting [9]), 30%; in series [3] (setting [10]), 80%; in series [3] (setting [11]), 70%. For the same molecule, the pest or weed control at 250 g/ha in series [4] (setting [12]) stood at 90%; in series [4] (setting [13]), 80%. For the same molecule, the “Post-emergence Crop Selectivity, percentage phytotoxicity, Wheat +CQC” value in series [5] came to 10%. In addition, the “Post-emergence Crop Selectivity, percentage phytotoxicity, Wheat − CQC” value in series [5] came to 60%.
Turning to `Cc1cc(-c2ccc(Cl)cn2)cc(C)c1C1C(=O)CC(CC(=O)NCc2cccc(C(F)(F)F)c2)C1=O` (centres unmarked) [Compound A146], the pest or weed control at 250 g/ha in series [1] (setting [6]) turned out to be 100%; in series [1] (setting [7]), 80%; in series [2] (setting [8]) it was 100%; in series [2] (setting [9]) it was 90%; in series [3] (setting [10]), 100%; in series [3] (setting [11]), 90%. For the same molecule, the pest or weed control at 250 g/ha in series [4] (setting [12]) is 100%; in series [4] (setting [13]), 90%. Moreover, the “Post-emergence Crop Selectivity, percentage phytotoxicity, Wheat +CQC” value in series [5] is 50%. In addition, the “Post-emergence Crop Selectivity, percentage phytotoxicity, Wheat − CQC” value in series [5] came to 80%.
For `COCC(C)NC(=O)CC1CC(=O)C(c2c(C)cc(C)cc2C)C1=O` (centres unmarked) [Compound A16], the pest or weed control at 250 g/ha in series [1] (setting [6]) amounted to 90%; in series [1] (setting [7]) it was 90%; in series [2] (setting [8]), 90%; in series [2] (setting [9]), 90%; in series [3] (setting [10]), 100%; in series [3] (setting [11]), 100%. The pest or weed control at 250 g/ha in series [4] (setting [12]) and in series [4] (setting [13]) was 80% throughout. In series [5], the “Post-emergence Crop Selectivity, percentage phytotoxicity, Wheat +CQC” value came out at 30%. Besides, in series [5], the “Post-emergence Crop Selectivity, percentage phytotoxicity, Wheat − CQC” value came out at 80%.
Turning to `Cc1cc(-n2cc(Cl)cn2)cc(C)c1C1C(=O)CC(CC(=O)NC2CCCC2)C1=O` (centres unmarked) [Compound A70], the pest or weed control at 250 g/ha in series [1] (setting [6]) worked out at 90%; in series [1] (setting [7]), 70%; in series [2] (setting [8]), 70%; in series [2] (setting [9]), 70%; in series [3] (setting [10]) it was 90%; in series [3] (setting [11]), 100%. For the same molecule, the pest or weed control at 250 g/ha in series [4] (setting [12]) and in series [4] (setting [13]) was 70% each time. The “Post-emergence Crop Selectivity, percentage phytotoxicity, Wheat +CQC” value in series [5] is 20%. Moreover, the “Post-emergence Crop Selectivity, percentage phytotoxicity, Wheat − CQC” value in series [5] worked out at 70%.
In the case of `Cc1cc(C)c(C2C(=O)CC(CC(=O)NC3CC3)C2=O)c(C)c1` (centres unmarked) [Compound A15], the pest or weed control at 250 g/ha in series [1] (setting [6]) came to 80%; in series [1] (setting [7]), 80%; in series [2] (setting [8]), 80%; in series [2] (setting [9]), 50%; in series [3] (setting [10]), 100%; in series [3] (setting [11]), 100%. Further, the pest or weed control at 250 g/ha in series [4] (setting [12]) and in series [4] (setting [13]) was 100% each time. In addition, the “Post-emergence Crop Selectivity, percentage phytotoxicity, Wheat +CQC” value in series [5] stood at 20%. In addition, in series [5], the “Post-emergence Crop Selectivity, percentage phytotoxicity, Wheat − CQC” value was 20%.
